In the NIST ThermoML archive (doi:10.1021/je0601513):

How the values were obtained:
[1] = xn = mol fraction of the nth substance listed; details: 101 kPa, Liquid; for viscosity: Capillary tube (Ostwald / Ubbelohde) method
[2] = refractive index (Na D-line) (dimensionless); xn = mol fraction of the nth substance listed; details: 101 kPa, Liquid, Standard Abbe refractometry
[3] = excess molar enthalpy (molar enthalpy of mixing); xn = mol fraction of the nth substance listed; details: 101 kPa, Liquid

C[S+](C)[O-] [dimethyl sulfoxide] + CCCO
Details | excess molar enthalpy [kcal/mol] | mass density [kg/m3] | refractive index | viscosity [mPa·s]
[1], 288.15 K, x1 = 0.0533 | – | 822.73 | – | 2.251
[1], 288.15 K, x1 = 0.0938 | – | 834.33 | – | 2.1
[1], 288.15 K, x1 = 0.1708 | – | 856.51 | – | 1.937
[1], 288.15 K, x1 = 0.2592 | – | 882.15 | – | 1.835
[1], 288.15 K, x1 = 0.346 | – | 907.54 | – | 1.81
[1], 288.15 K, x1 = 0.4294 | – | 932.12 | – | 1.819
[1], 288.15 K, x1 = 0.5115 | – | 956.49 | – | 1.864
[1], 288.15 K, x1 = 0.5981 | – | 982.38 | – | 1.927
[1], 288.15 K, x1 = 0.6853 | – | 1008.66 | – | 1.999
[1], 288.15 K, x1 = 0.7596 | – | 1031.23 | – | 2.086
[1], 288.15 K, x1 = 0.8438 | – | 1057.01 | – | 2.206
[1], 288.15 K, x1 = 0.9368 | – | 1085.71 | – | 2.348
[1], 298.15 K, x1 = 0.0554 | – | 815.18 | – | 1.799
[1], 298.15 K, x1 = 0.1366 | – | 838.3 | – | 1.635
[1], 298.15 K, x1 = 0.22 | – | 862.21 | – | 1.522
[1], 298.15 K, x1 = 0.2987 | – | 884.95 | – | 1.486
[1], 298.15 K, x1 = 0.4289 | – | 922.94 | – | 1.487
[1], 298.15 K, x1 = 0.5022 | – | 944.55 | – | 1.517
[1], 298.15 K, x1 = 0.5992 | – | 973.37 | – | 1.575
[1], 298.15 K, x1 = 0.677 | – | 996.69 | – | 1.633
[1], 298.15 K, x1 = 0.7656 | – | 1023.43 | – | 1.71
[1], 298.15 K, x1 = 0.8358 | – | 1044.81 | – | 1.786
[1], 298.15 K, x1 = 0.9181 | – | 1070.04 | – | 1.881
[1], 298.15 K, x1 = 0.9646 | – | 1084.38 | – | 1.942
[1], 308.15 K, x1 = 0.0537 | – | 806.44 | – | 1.439
[1], 308.15 K, x1 = 0.1336 | – | 828.96 | – | 1.319
[1], 308.15 K, x1 = 0.2147 | – | 852.03 | – | 1.264
[1], 308.15 K, x1 = 0.2987 | – | 876.11 | – | 1.237
[1], 308.15 K, x1 = 0.3876 | – | 901.81 | – | 1.243
[1], 308.15 K, x1 = 0.4707 | – | 926.08 | – | 1.265
[1], 308.15 K, x1 = 0.5552 | – | 950.93 | – | 1.296
[1], 308.15 K, x1 = 0.6418 | – | 976.65 | – | 1.343
[1], 308.15 K, x1 = 0.7191 | – | 999.78 | – | 1.401
[1], 308.15 K, x1 = 0.7998 | – | 1024.11 | – | 1.474
[1], 308.15 K, x1 = 0.877 | – | 1047.58 | – | 1.545
[1], 308.15 K, x1 = 0.965 | – | 1074.53 | – | 1.621
[2], 288.15 K, x1 = 0.0533 | – | – | 1.3942 | –
[2], 288.15 K, x1 = 0.0938 | – | – | 1.3979 | –
[2], 288.15 K, x1 = 0.1708 | – | – | 1.405 | –
[2], 288.15 K, x1 = 0.2592 | – | – | 1.4132 | –
[2], 288.15 K, x1 = 0.346 | – | – | 1.4212 | –
[2], 288.15 K, x1 = 0.4294 | – | – | 1.429 | –
[2], 288.15 K, x1 = 0.5115 | – | – | 1.4367 | –
[2], 288.15 K, x1 = 0.5981 | – | – | 1.4449 | –
[2], 288.15 K, x1 = 0.6853 | – | – | 1.4532 | –
[2], 288.15 K, x1 = 0.7596 | – | – | 1.4603 | –
[2], 288.15 K, x1 = 0.8438 | – | – | 1.4685 | –
[2], 288.15 K, x1 = 0.9368 | – | – | 1.4774 | –
[2], 298.15 K, x1 = 0.0554 | – | – | 1.3889 | –
[2], 298.15 K, x1 = 0.1366 | – | – | 1.3966 | –
[2], 298.15 K, x1 = 0.22 | – | – | 1.4045 | –
[2], 298.15 K, x1 = 0.2987 | – | – | 1.4119 | –
[2], 298.15 K, x1 = 0.4289 | – | – | 1.4239 | –
[2], 298.15 K, x1 = 0.5022 | – | – | 1.4307 | –
[2], 298.15 K, x1 = 0.5992 | – | – | 1.4398 | –
[2], 298.15 K, x1 = 0.677 | – | – | 1.4472 | –
[2], 298.15 K, x1 = 0.7656 | – | – | 1.4558 | –
[2], 298.15 K, x1 = 0.8358 | – | – | 1.4627 | –
[2], 298.15 K, x1 = 0.9181 | – | – | 1.4705 | –
[2], 298.15 K, x1 = 0.9646 | – | – | 1.4747 | –
[2], 308.15 K, x1 = 0.0537 | – | – | 1.3843 | –
[2], 308.15 K, x1 = 0.1336 | – | – | 1.3916 | –
[2], 308.15 K, x1 = 0.2147 | – | – | 1.3991 | –
[2], 308.15 K, x1 = 0.2987 | – | – | 1.407 | –
[2], 308.15 K, x1 = 0.3876 | – | – | 1.4152 | –
[2], 308.15 K, x1 = 0.4707 | – | – | 1.4229 | –
[2], 308.15 K, x1 = 0.5552 | – | – | 1.4308 | –
[2], 308.15 K, x1 = 0.6418 | – | – | 1.4389 | –
[2], 308.15 K, x1 = 0.7191 | – | – | 1.4462 | –
[2], 308.15 K, x1 = 0.7998 | – | – | 1.454 | –
[2], 308.15 K, x1 = 0.877 | – | – | 1.4614 | –
[2], 308.15 K, x1 = 0.965 | – | – | 1.4698 | –
[3], 288.15 K, x1 = 0.042 | 0.0514 | – | – | –
[3], 288.15 K, x1 = 0.0807 | 0.0896 | – | – | –
[3], 288.15 K, x1 = 0.1163 | 0.118 | – | – | –
[3], 288.15 K, x1 = 0.1493 | 0.139 | – | – | –
[3], 288.15 K, x1 = 0.2084 | 0.168 | – | – | –
[3], 288.15 K, x1 = 0.2598 | 0.182 | – | – | –
[3], 288.15 K, x1 = 0.3449 | 0.196 | – | – | –
[3], 288.15 K, x1 = 0.4124 | 0.196 | – | – | –
[3], 288.15 K, x1 = 0.5129 | 0.189 | – | – | –
[3], 288.15 K, x1 = 0.6124 | 0.173 | – | – | –
[3], 288.15 K, x1 = 0.6781 | 0.158 | – | – | –
[3], 288.15 K, x1 = 0.7595 | 0.128 | – | – | –
[3], 288.15 K, x1 = 0.8456 | 0.093 | – | – | –
[3], 288.15 K, x1 = 0.8634 | 0.0822 | – | – | –
[3], 288.15 K, x1 = 0.8939 | 0.0676 | – | – | –
[3], 288.15 K, x1 = 0.9267 | 0.0488 | – | – | –
[3], 288.15 K, x1 = 0.9619 | 0.0265 | – | – | –
[3], 298.15 K, x1 = 0.0422 | 0.0495 | – | – | –
[3], 298.15 K, x1 = 0.0809 | 0.0875 | – | – | –
[3], 298.15 K, x1 = 0.1166 | 0.117 | – | – | –
[3], 298.15 K, x1 = 0.1497 | 0.141 | – | – | –
[3], 298.15 K, x1 = 0.2089 | 0.167 | – | – | –
[3], 298.15 K, x1 = 0.2604 | 0.182 | – | – | –
[3], 298.15 K, x1 = 0.3456 | 0.199 | – | – | –
[3], 298.15 K, x1 = 0.4131 | 0.201 | – | – | –
[3], 298.15 K, x1 = 0.5137 | 0.194 | – | – | –
[3], 298.15 K, x1 = 0.6131 | 0.175 | – | – | –
[3], 298.15 K, x1 = 0.6787 | 0.16 | – | – | –
[3], 298.15 K, x1 = 0.7602 | 0.134 | – | – | –
[3], 298.15 K, x1 = 0.8086 | 0.111 | – | – | –
[3], 298.15 K, x1 = 0.8638 | 0.0853 | – | – | –
[3], 298.15 K, x1 = 0.8942 | 0.0674 | – | – | –
[3], 298.15 K, x1 = 0.9269 | 0.0492 | – | – | –
[3], 298.15 K, x1 = 0.9621 | 0.0265 | – | – | –
[3], 308.15 K, x1 = 0.0421 | 0.0507 | – | – | –
[3], 308.15 K, x1 = 0.0808 | 0.0872 | – | – | –
[3], 308.15 K, x1 = 0.1234 | 0.122 | – | – | –
[3], 308.15 K, x1 = 0.1495 | 0.14 | – | – | –
[3], 308.15 K, x1 = 0.2087 | 0.167 | – | – | –
[3], 308.15 K, x1 = 0.2601 | 0.183 | – | – | –
[3], 308.15 K, x1 = 0.3454 | 0.198 | – | – | –
[3], 308.15 K, x1 = 0.4128 | 0.199 | – | – | –
[3], 308.15 K, x1 = 0.5134 | 0.193 | – | – | –
[3], 308.15 K, x1 = 0.612 | 0.175 | – | – | –
[3], 308.15 K, x1 = 0.6784 | 0.16 | – | – | –
[3], 308.15 K, x1 = 0.7599 | 0.129 | – | – | –
[3], 308.15 K, x1 = 0.8084 | 0.111 | – | – | –
[3], 308.15 K, x1 = 0.8636 | 0.082 | – | – | –
[3], 308.15 K, x1 = 0.8941 | 0.0698 | – | – | –
[3], 308.15 K, x1 = 0.9268 | 0.049 | – | – | –
[3], 308.15 K, x1 = 0.962 | 0.027 | – | – | –
